Reference: US20160257697A1, “THIOPHENE-SUBSTITUTED TETRACYCLIC COMPOUNDS AND METHODS OFUSE THEREOF FOR THE TREATMENT OF VIRAL DISEASES” (priority 2013, published 2016)
Where two headings read alike, the source gives them in different places.

What was measured:
Assay in all cases: microbe, parasite or virus in culture
Type in all cases: cell-based, Hepatitis C virus (HCV)
[1] = system: HCV replicon 2B; conditions: Replicon Assay A
How it was run: (§1)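 Replicon cells were seeded at 2000 cells/well with test compound in 0.5% DMSO and 5% FBS, then harvested on day 3. Replicon RNA was measured by multiplex TaqMan real-time RT-PCR, using cyclophilin RNA as the endogenous control and quantified against standard curves of HCV replicon total RNA.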

[2] = system: HCV replicon 1AY93H; conditions: Replicon Assay A
How it was run: as §1

[3] = system: HCV replicon 1A; conditions: Replicon Assay A
How it was run: as §1

[4] = system: HCV replicon 1AQ30D; conditions: Replicon Assay B
[5] = system: HCV replicon 1B; conditions: Replicon Assay B
[6] = Hepatitis C virus, read-out: 2B IC50 (nM), replicon 2B
[7] = Hepatitis C virus, read-out: 1A Y93H IC50 (nM), replicon 1AY93H
[8] = Hepatitis C virus, read-out: 1A Q30D IC50 (nM), replicon 1AQ30D
[9] = read-out: 2B IC50, HCV replicon 2B
[10] = read-out: 1A Y93H IC50, HCV replicon 1A Y93H
[11] = read-out: 1A Q30D IC50, HCV replicon 1A Q30D
[12] = read-out: 1A Y93H IC50, replicon 1AY93H
[13] = read-out: 1A Q30D IC50, replicon 1AQ30D

SMILES	IC50 ([3]; Hepatitis C virus, replicon 1A) [pM]	IC50 [4, 8] [nM]	IC50 ([5]; Hepatitis C virus, replicon 1B) [pM]	IC50 [1, 9] [nM]	IC50 [2, 10] [nM]	IC50 ([3]; HCV replicon 1A) [pM]	IC50 [4, 11] [nM]	IC50 ([5]; HCV replicon 1B) [pM]	IC50 ([1]; read-out: 2B IC50, replicon 2B) [nM]	IC50 [2, 12] [nM]	IC50 ([5]; replicon 1B) [pM]	also measured
COC(=O)NC(C(=O)N1[C@@H]2C[C@@H]2C[C@H]1c1ncc(-c2ccc3c(c2)cc2n3C(c3ccc(C4CC4)s3)Oc3cc(-c4cnc([C@@H]5CCCN5C(=O)[C@@H](NC(=O)OC)C(C)C)[nH]4)cc(F)c3-2)[nH]1)C1CCOC(C)(C)C1 (some centres unmarked) [Compound 275]	1.9	0.023	3.2	–	–	–	–	–	–	–	–	IC50 [1, 6]: 0.006 nM; IC50 [2, 7]: 0.003 nM
COC(=O)N[C@H](C(=O)N1C2CC2C[C@H]1c1ncc(-c2cc(F)c3c(c2)OC(c2ccc(C4CC4)s2)n2c-3cc3cc(-c4cnc([C@@H]5CCCN5C(=O)[C@@H](NC(=O)OC)C5C[C@@H](C)O[C@@H](C)C5)[nH]4)ccc32)[nH]1)C(C)C (single isomer, unassigned) [Compound 554]	–	–	–	0.203	0.237	26.8	1.67	22.6	–	–	–	–
COC(=O)NC(C(=O)N1CCC[C@H]1c1ncc(-c2cc(F)c3c(c2)OC(c2ccc(C4CC4)s2)n2c-3cc3cc(-c4cnc([C@@H]5CCCN5C(=O)[C@@H](NC(=O)OC)C5CCOCC5)[nH]4)ccc32)[nH]1)C(C)(C)F (some centres unmarked) [Compound 168]	1.3	0.011	–	–	–	–	–	–	0.002	0.002	1.5	–
CCc1ccc(C2Oc3cc(-c4cnc([C@@H]5CCCN5C(=O)C(NC(=O)OC)C5CCOC(C)(C)C5)[nH]4)cc(F)c3-c3cc4cc(-c5cnc([C@@H]6CCCN6C(=O)C(NC(=O)OC)C6CCOC(C)(C)C6)[nH]5)ccc4n32)s1 (single isomer, unassigned) [Compound 295]	–	–	–	–	–	–	–	–	0.004	0.005	2.8	IC50 ([3]; replicon 1A): 3.2 pM; IC50 [4, 13]: 0.017 nM
COC(=O)N[C@H](C(=O)N1CCC[C@H]1c1ncc(-c2cc(F)c3c(c2)OC(c2ccc(-c4ccc(I)cc4)s2)n2c-3cc3cc(-c4cnc([C@@H]5CCCN5C(=O)[C@@H](NC(=O)OC)C(C)C)[nH]4)ccc32)[nH]1)C(C)C (mixture of isomers) [Compound 313]	3.2	0.19	2.9	–	–	–	–	–	–	–	–	IC50 [1, 6]: 0.1 nM; IC50 [2, 7]: 0.026 nM
COC(=O)N[C@H](C(=O)N1CCC[C@H]1c1ncc(-c2cc(F)c3c(c2)OC(c2cc4c(s2)CCC(C)(C)O4)n2c-3cc3cc(-c4cnc([C@@H]5CCCN5C(=O)[C@@H](NC(=O)OC)C(C)C)[nH]4)ccc32)[nH]1)C(C)C (single isomer, unassigned) [Compound 397]	3	0.0765	3	–	–	–	–	–	0.0164	0.004	–	–
COC(=O)N[C@H](C(=O)N1[C@@H]2C[C@@H]2C[C@H]1c1ncc(-c2cc(F)c3c(c2)OC(c2ccc(C4CC4)s2)n2c-3cc3cc(-c4cnc([C@@H]5C[C@H]6C[C@H]6N5C(=O)[C@@H](NC(=O)OC)C(C)C)[nH]4)ccc32)[nH]1)C(C)C (single isomer, unassigned) [Compound 87]	1.2	0.15	1.3	–	–	–	–	–	0.19	0.002	–	–
COC(=O)N[C@H](C(=O)N1CCC[C@@H]1c1ncc(-c2cc(F)c3c(c2)OC(c2ccc(C(C)C)s2)n2c-3cc3cc(-c4c[nH]c([C@@H]5CCCN5C(=O)[C@H](NC(=O)OC)C5C[C@@H](C)O[C@@H](C)C5)n4)ccc32)[nH]1)C(C)C (some centres unmarked) [Compound 241]	–	–	–	–	–	–	–	–	0.016	0.005	2.4	IC50 ([3]; replicon 1A): 1.6 pM; IC50 [4, 13]: 0.033 nM
COC(=O)N[C@H](C(=O)N1CCC[C@H]1c1ncc(-c2cc(C)c3c(c2)OC(c2ccc(C4CC4)s2)n2c-3cc3cc(-c4cnc([C@@H]5C[C@H]6C[C@H]6N5C(=O)[C@@H](NC(=O)OC)C(C)C)[nH]4)ccc32)[nH]1)C(C)C (single isomer, unassigned) [Compound 756]	–	–	–	0.6	0.64	3.6	10.2	2.2	–	–	–	–
COC(=O)N[C@H](C(=O)N1CCC[C@H]1c1ncc(-c2cc(F)c3c(c2)OC(c2cc4ccccc4s2)n2c-3cc3cc(-c4cnc([C@@H]5C[C@H]6C[C@H]6N5C(=O)[C@@H](NC(=O)OC)C(C)C)[nH]4)ccc32)[nH]1)C(C)C (single isomer, unassigned) [Compound 616]	–	–	–	0.266	0.0205	2.9	0.538	2	–	–	–	–
